From patent US20240424022A1, “IN VIVO AND EX VIVO METHODS OF MODULATING T CELL EXHAUSTION/DE-EXHAUSTION” (Flagship Pioneering Innovations VI, LLC, priority 2021, published 2024) come the findings set out here.

For assay [1], the system named is colon adenocarcinoma cell line, MC38. The experiment in a line: Efficacy study in MC38 syngeneic mice, tumor growth inhibition. The assay is classed as in vivo, mouse. The settings on record: doses per Table 5 (Anti-PD-1 200 ug IP BIWx3, by day 9; Perturbagen 1 10 mg/kg IP QDx10), Table 3 numbering.
For assay [2], the system named is CD8+ T cells derived from tumors. The experiment in a line: Flow cytometry of tumor infiltrating T lymphocytes, MC38 syngeneic mouse model. The assay is classed as in vivo. The following applies: MC38 mice, day after final dose, doses per Table 5, Table 3 numbering. An excerpt:
(§1) The day after the final dose, mice were euthanized, blood was collected by cardiac puncture and the tumors were removed. For all mice, a section of tumor was flash frozen in liquid nitrogen and stored at −80 degrees C. for future analysis; the remainder of the tumor was placed in cold RPMI (with glucose) and processed to generate a single cell suspension for flow cytometry. For a pre-selected subgroup of mice, a sample of the single cell suspension was collected for scRNAseq (3 samples from 5 treatment groups provided 15 samples for 2 runs on a 10× Chromium box). Each tumor was minced with a clean razor blade to the consistency of chopped garlic. The tumor was placed in a digestive enzyme mix (mouse tumor dissociation kit, Miltenyi) and incubated on a dissociator at 37 degrees C. for 45 min (OctoMax). Following dissociation, the slurry was filtered through a 70 μm nylon filter, centrifuged, and the pellet resuspended in Ammonium-Chloride-Potassium (ACK) lysing buffer for 3 minutes to lyse red blood cells. The ACK buffer was neutralized with 10-fold excess PBS and then the cell suspension was centrifuged to concentrate the cells. Cell suspensions from all tumors were stored on ice until analyzed by flow cytometry.
For flow cytometry, samples of each cell suspension were incubated at room temperature for one hour with an antibody panel optimized for detection of effector and exhausted T cells (Tables 6 and 7). Prior to intracellular staining, samples were permeabilized and fixed using the eBioscience™ Foxp3 Transcription Factor Staining Buffer Set (ThermoFisher) according to the manufacturer's recommendations. Samples were then incubated for one hour with the intracellular staining mix, then centrifuged and resuspended for flow cytometric analysis. Following compensation measurements using commercial beads, fluorescence minus one (fmo) measurements were performed followed by measurements of all the samples. For each sample, at least 100,000 events were recorded. All analysis for flow cytometry data was performed using FlowJo™ (BD).

The subject of the next assay is T cells. Nature of the assay: scRNAseq analysis of MC38 tumor single cell suspensions. The assay is classed as in vivo. The settings on record: MC38 syngeneic mouse, versus PBS.
Description: as §1
As detailed above, 15 samples of tumor single cell suspension were obtained for single cell RNA sequencing (Table 8). […]

Take pembrolizumab: the “Tumor growth inhibition (TGI)” value in assay [1] was “significant tumor growth inhibition”. Besides, in assay [2], the “Expression of PD-1 in CD8+ T cells derived from tumors” value is given as “reduced”, the “Expression of TIGIT in CD8+ T cells derived from tumors” value is listed as “reduced” and the “Number of CD8+ T cells in the tumor” value is on record as “increased”. For the same substance, the “Density of T cells in scRNAseq manifold” value with T cells is reported as “enhanced”.
